Data published in ChEMBL document CHEMBL3507680, “University of Dundee, Gates Library screen for HepG2 cell viability”.

Experiment: Human HepG2 cell viability assay in 384 well format
Format: toxicity, cell-based
Parameters: dose 125 nL, time 70.5 hour; cytotoxicity at 70.5 h: concentration not given beside the values
Conditions: HepG2 cells, read-out: Inhibition

SMILES	cytotoxicity at 70.5 h [%]
Cc1nn(C)c(C)c1C1CCCN1Cc1nc(C)c2ccccc2n1 (configuration not stated)	5.7
CS(=O)(=O)N1CCO[C@@H]2CN(C(=O)Cc3cccs3)CC[C@@H]2C1	-9.17
CCSc1ncc(-c2cc(C3CCC3)nc(N)c2C#N)cn1	9.11
Cc1cccc(OCCC(=O)N2CCCN(C(N)=O)CC2)c1C	15.3
CCn1ncc2c1C(COC)CN(Cc1ccco1)C2 (configuration not stated)	3.48
Cc1ncsc1C(=O)NC1CCN(CC(=O)N(C)c2ccccc2)CC1	-1.98
CN(Cc1noc(C2CC2)n1)C1CCN(CCn2cccn2)C1 (configuration not stated)	-5.95
CN1C(=O)CC(c2cnn(C)c2)C12CCN(C(=O)c1cscn1)CC2 (configuration not stated)	-2.36
CCc1nnc(CN2CCN(C(C)=O)CC2)o1	-1.65
CCc1ccc2nc(-c3cnn(C)c3)cc(C(=O)N3CCOCC3)c2c1	-7.51
O=C(NCCc1nccs1)C1CCCN(Cc2ccco2)C1 (configuration not stated)	-2.53
CCCN1CCC(CNC(=O)C2(c3ccccc3)CCC2)C1 (configuration not stated)	18.5
O=C(c1ccc(Cl)s1)N1CCC2(COc3ncccc3S(=O)(=O)N2)C1 (configuration not stated)	-8.51
CC(C)c1cc(C(=O)N2CCOC3(CCCC3)C2)no1	-21.7
CS(=O)(=O)N1CC[C@]2(C[C@@H](Oc3ccccn3)CO2)C1	-3.36
COc1ccc(C(=O)N2C[C@@H](CN3CCCC3)[C@@H](CO)C2)c(C)c1	-8.12
Cc1cc(C)c(CNC(=O)N(C)Cc2nnc3n2CCC3)c(=O)[nH]1	-10.3
O=C1CCCc2cc(S(=O)(=O)NCc3ccccn3)ccc2N1	-11
CN(C)Cc1csc(-c2nccn2Cc2ccc(C(=O)O)cc2)c1	19.3
Cc1nc(COC[C@@H]2CC[C@H]3NCC[C@H]3O2)cs1	38.8
CCC1c2ccccc2CCN1CCCS(C)(=O)=O (configuration not stated)	-3.06
CC(C)c1ccc(CS(=O)(=O)Cc2nc(N)nc(N(C)C)n2)cc1	-6.09
O=C(NCCOc1ccc(Cl)cc1)N1CCS(=O)(=O)CC1	9.92

SMILES	cytotoxicity at 70.5 h [%]
CCn1ncc(S(=O)(=O)NC(C)c2cc(OC)ccc2OC)c1C (configuration not stated)	20.2
Nc1nc(CNc2ncnc3c2CCN(Cc2ccoc2)CC3)cs1	29
CCN1CCOCC2(CCCN(C(=O)c3cnccn3)C2)C1 (configuration not stated)	-14.9
NC(=O)C(Nc1ccc(Cl)cc1)c1ccc(F)cc1 (configuration not stated)	-0.513
Cc1ccc(F)c(C(=O)N2CCN(S(C)(=O)=O)[C@@H](C)C2)c1	-3.67
CCOc1cccc2c1OCC(C(=O)NS(=O)(=O)c1ccc(Br)s1)=C2	14.6
COc1ccc(C(N)=O)cc1NCc1ncc(-c2cccs2)o1	-14
COCC(c1cccc(C(F)(F)F)c1)N(C)C(=O)c1ccco1 (configuration not stated)	-1.02
Cc1cc(C2CCN(S(=O)(=O)c3cn(C)cn3)CC2)ccn1	-9.79
CCN1CCCC12CCN(C(=O)c1ccsc1)CC2	-7.76
O=C([C@H]1CCCO1)N1CCc2ncnc(NC3CC3)c2CC1	-6.76
CCN(CC1CCOC1)C(=O)NCc1nnc2n1CCCCC2 (configuration not stated)	-7.23
CCNc1ncc(C(=O)NC(CCN(C)C)c2ccccc2)cn1 (configuration not stated)	26.8
NC(=O)C1CCN(C(=O)NC2CCc3cc(F)ccc32)CC1 (configuration not stated)	2.63
CC1CCN(C(=O)CN2CC(c3nc(C4CC4)no3)C2)CC1	23.6
CCOCc1cnc2n1CCN(C(=O)Cc1ccco1)C2C (configuration not stated)	-6.58
CCc1ccc(CNC(=O)N2CCN(Cc3cc(C)on3)CC2)s1	-4.93
CC(NCc1ccc(OCC(N)=O)cc1)c1ccc(Cl)cc1 (configuration not stated)	15.5
Cc1cc(CN2CCC(CNS(=O)(=O)c3ccc(Br)s3)CC2)c(C)o1	-7.28
CCOC(=O)NCCC(=O)NCc1ccc(Oc2ccc(F)cc2)nc1	1.62
CC(C)Oc1ccccc1CNC(=O)N(C)C(C)CS(C)(=O)=O (configuration not stated)	16.1
COCc1ncn2c1CN(C(=O)c1cnc3ccccc3c1)CC2	1.48
Fc1cccc2c1CCC2NCc1cnc(N2CCOCC2)nc1 (configuration not stated)	-1.25

SMILES	cytotoxicity at 70.5 h [%]
CCCN1CCCC2(CCN(c3nc(C)nc4ccsc34)C2)C1=O (configuration not stated)	-3.49
O=C1NCC2(CCN(C(=O)c3ccc4c(c3)CCCO4)CC2)O1	-1.35
Cc1cc(Cl)ccc1NCC(=O)Nc1cc(C(C)(C)C)no1	-6.23
CN1CCCn2c(nc(CNC(=O)c3ccsc3)cc2=O)C1	-15.1
COc1cc(CN2C[C@@H]3CNC(=O)[C@H](C)[C@@H]3C2)cc(OC)c1	-9.46
COC(=O)CSCc1nc(-c2ccc(Cl)cc2)no1	11
CN1CSC[C@H]1C(=O)N1CCC(Cc2ccccc2F)CC1	-4.33
Cc1nn(C2CCS(=O)(=O)C2)c(O)c1CCc1ccccc1 (configuration not stated)	-8.16
Cc1cc2n(n1)CC(CNCc1cnn(C)c1)CN2 (configuration not stated)	-15
CC(C)C(C)(C#N)NC(=O)Cn1cc(Cl)cn1 (configuration not stated)	-6.35
CO[C@@H]1CN(c2ccccc2)S(=O)(=O)[C@@]12CCN(CC1CC1)C2	-6.15
CC(C)N(C)[C@@H]1CCN(Cc2ccoc2)[C@H]1Cc1ccccc1	-1.21
Cc1cc(C(=O)Nc2ccc3c(ccn3CCN3CCOCC3)c2)on1	-5.31
COc1cccc(CC2(CO)CCCN(c3nccs3)C2)c1 (configuration not stated)	-1.79
CC(C)N1CCC(C(=O)N2CCc3c(nc(CC4CC4)[nH]c3=O)C2)CC1	-7.62
Cc1nn(C)c2ncnc(N3CCCC(C)(O)C3)c12 (configuration not stated)	-6.93
Cc1ccccc1SCC(=O)NC1CCC(O)CC1 (configuration not stated)	7.04
CC(C)(C)Cc1noc2ncc(C(=O)N3CCC3)cc12	-6.81
CN(CCCc1ccccc1)C(=O)CCc1nc(-c2nnc[nH]2)no1	-0.426
O=C(O)[C@@H]1CN(C(=O)CN2CCCCCC2)C[C@H]1c1ccccc1	1.47
COc1cccc(CN2CCC3(CC2)CCN(c2ncc(F)cn2)C3)c1	0.909
N#Cc1ccc2c(c1)CN(C(=O)c1nc[nH]n1)C2c1cnco1 (configuration not stated)	-2.48
CN(CC(=O)N1CCC(OCc2cccnc2)CC1)c1ccccc1	-17.1

SMILES	cytotoxicity at 70.5 h [%]
Cc1cc(C(=O)NCC2CCS(=O)(=O)C2)ccc1NC(=O)c1ccco1 (configuration not stated)	2.82
Cc1ccccc1C(=O)N1CC[C@@H](N(C)C)[C@@H]1Cc1cnn(C)c1	25.4
CCOCC1CN(C(=O)CS(C)(=O)=O)Cc2cnn(C)c21 (configuration not stated)	-14.4
c1cncc(CO[C@H]2CO[C@@]3(CCN(Cc4ccoc4)C3)C2)c1	-20.1
Cc1cc2n(n1)CC(CNC1CCN(C(=O)C3CC3)CC1)CN2 (configuration not stated)	16.7
Cc1c(C)n(Cc2ccccn2)c2nc3c(c(N)c12)CCCCCC3	22
COc1cccc(NC(=O)N(CCO)Cc2ccsc2)c1	-3.88
Cc1cc(CNC(=O)NC(C)(CO)C2CC2)c(C)s1 (configuration not stated)	-5.03
CCOc1ncccc1C(=O)NCC(O)c1ccc(F)c(F)c1 (configuration not stated)	-6.21
CNc1nc(C2CCCCN2C(=O)COC)nc2c1CN(C)CC2 (configuration not stated)	-9.52
O=C(C[C@@H]1COC[C@H]2CN(Cc3ccc(F)cc3)C[C@@H]12)N1CCCCO1	-14.5
NC(=O)CNC(c1ccccc1)c1ccc(OC(F)F)cc1 (configuration not stated)	11.2
Cn1ncc2c(=O)[nH]c(CN3CCc4ccccc4C3)nc21	-15.9
O=C(CC1CC1)N1CCCn2nnc(CNc3ncccn3)c2C1	-1.8
Cc1ncsc1CN1C[C@@H]2COC[C@]2(C(=O)NCc2cccnc2)C1	-14.8
Cc1cc(C)n(CC2CCCN2CC(=O)N(C)Cc2ccco2)n1 (configuration not stated)	-8.36
Cc1nc(N(C)C)cc(C2(C)CCCNC2)n1 (configuration not stated)	-2.1
Cc1oc(-c2nc(C#N)c(NC(C)(C)C)o2)cc1S(=O)(=O)N1CCCC1	-8.41
Cc1cc2n(n1)[C@@H](C(F)(F)F)C[C@@H](C1CCN(C(=O)C(C)C)CC1)N2	-1.78
CN(C)c1ccc(CC(=O)N2CCOCC(O)C2)cc1 (configuration not stated)	22.5
COc1ccc2oc(C(C)NC(=O)NCc3noc(C)n3)c(C)c2c1 (configuration not stated)	-12
COCC1CN(C(=O)c2ccoc2)Cc2cnn(CC3CCOCC3)c21 (configuration not stated)	-9.06
CCC1CN(CCCNS(C)(=O)=O)c2ccccc2O1 (configuration not stated)	-4.06

SMILES	cytotoxicity at 70.5 h [%]
CN(C)Cc1cnn(-c2ccccc2C(=O)NCCC2CCCN2C)c1 (configuration not stated)	-0.0444
Cc1nn(C)c2cnn(CC(=O)NCc3ccc4c(c3)OCO4)c12	-3.63
Cc1csc(CNc2cnc3c(c2)c(C)nn3C)n1	12.8
CN1CCCC[C@@H]2[C@H]1[C@@H](c1ccccc1)CCN2C(=O)c1ccccn1	-9.11
COc1ccc(-n2nnnc2C(C)(C)Nc2ccc(C)cc2C)cc1	40.2
O=S(=O)(c1ccccc1)N1CCCN(CCCn2ccnc2)CC1	-10.3
Cc1cnn(CC2CN(CC(=O)Nc3cc(C)on3)CCO2)c1 (configuration not stated)	-5.06
O=C(COc1ccccc1F)NCC(O)(c1ccccc1)C1CC1 (configuration not stated)	-13.8
CCc1nn(C)c2[nH]nc(NC(=O)c3cccnc3OC)c12	-112
CCc1nnc(N2C[C@@H](CN(C)CCO)[C@@H](CO)C2)s1	-12.4
Cc1cc2ccccc2n1CCC(=O)N1CCN(C)CC1C(N)=O (configuration not stated)	-2.15
Cn1c(-c2ccccc2Cl)nc2cc(C(=O)NCC3(C)COC3)cnc21	4.56
Cc1nc(CN(C)C(=O)CNC(=O)c2ccc(C#N)cc2)cs1	-8.22
O=C(c1cccnc1)N1C[C@@H]2CC[C@H](C1)N(Cc1ncc[nH]1)C2	-7.7
CN1C(=O)CO[C@H](c2ccc(NC(=O)c3cccc(F)c3)cc2)[C@H]1CO	-0.0128
COc1cccc(CN2CCN(c3cccc(C(C)C)n3)CC2)c1F	-0.272
Cc1cc(C(=O)NC2(C#N)CCSCC2)n(C)n1	-5.82
Cc1nc(CNC(=O)Cn2nc(-c3ccc(F)cc3)oc2=O)cs1	0.339
CN(Cc1cccnc1)C1CC2(CCN(C(=O)c3ccnnc3)CC2)C1	-13.1
O=C(NCc1ccccn1)C1CN(c2nc3ccccc3s2)CCN1 (configuration not stated)	-8.77
